These are literature values, as cited in patent US20060286164A1 (priority 2004, published 2006).

The conditions of data set [1]: set by WHO from metabolic and toxicological data.
The subject of a further data set is Guinea Pig. Particulars: in vivo, po.
Another data set has as its system mouse. To be noted: in vivo, po.
Assay in data set [2]: not given
The source holds these as a separate data set.

“Also recorded” adds a separate entry of the source. Where two headings read alike, the source gives them in different places.

In the case of `CC(O)CO` (stereo not shown) [propylene glycol, Propylene glycol], the acceptable daily intake entry in data set [1] is recorded as “up to 25 mg/kg body weight”.
With `CCO` [Ethanol, Ethyl alcohol], under “chloroform, ether, glycerin and water”, the miscibility result is reported as “miscible”. For the same compound, the results for the LD50 in the data set on Guinea Pig and in the data set on mouse were 5560 mg/kg and 7500 mg/kg, respectively.
Consider `CC(C)Cc1ccc(C(C)C(=O)O)cc1` (racemic) [Ibuprofen, 2-(4-Isobutylphenyl)Propionic acid], for which, in data set [2], the solubility in water result was “practically insoluble; also recorded: not soluble”.
Regarding `CCCCCCCC/C=C\CCCCCCCC(=O)O` [Oleic acid, (Z)-9-Octadecenoic acid], the LD50 in the data set with rat (IV) is 2.4 mg/kg.
Take `CC(C)Cc1ccc([C@H](C)C(=O)O)cc1` [(S)-(+)-Ibuprofen]: the solubility in water result in data set [2] is reported as “not soluble”.
Turning to `CCOCCOCCO` [Transcutol, Diethylene glycol monoethyl ether], in data set [2], the solubility in water result is recorded as “soluble”. Further, the solubility entry is given as “soluble” (ethanol, hexylene glycol and propylene glycol); “partially soluble” (vegetable oil). The LD50 in the data set with rat (in vivo, po) was 7.5 mg/kg.
As to Vitamin E, the solubility in water entry in data set [2] is reported as “practically insoluble”. Also, the solubility entry (acetone, ethanol, ether and vegetable oil) is “freely soluble”.
